Experimental data published in US20190343908A1, “Therapeutic Combination for the Treatment of Cancer” (Nerium Biotechnology Inc., priority 2011, published 2019).

Experiments:
[1] = tested on: MDA-MB 231 (human breast cancer); assay: Crystal Violet viability assay, MDA-MB 231; format: cell-based; conditions: for CVE 24 h / CVE 48 h / CVE 72 h: Run 3 average
From the text: (§1) The Sulforhodamine B and Crystal Violet assays provide information about protein and were used to complement the Methyl-Tetrazolium dye assay. […] It is used for the quantification of cellular proteins of cultured cells. The assay using Crystal Violet, a dye that binds electrostatically to proteins and stains DNA, provides a reliable, simple assay for measuring viability of cells.
(§2) The Methyl Tetrazolium, Sulforhodamine B, and Crystal Violet assays were used to assess cell viabilities. The incubation times were 24 hours, 48 hours, and 72 hours. The Nerium oleander extract Anvirzel™ (a hot water extract of oleander obtained from Salud Integral, Honduras) was tested in concentrations ranging from 0.01 ng/mL to 10 ng/mL.
(§3) Cells were detached by trypsinization (Trypsin-0.25% EDTA, Invitrogen, 25200-072) during the logarithmic phase of culture growth and plated in 96-well plates (18.000 cells/well) (Corning, Costar 359) in a final volume of 200 μl of medium per well. […] The absorbance was measured after 24 hours, 48 hours, and 72 hours of incubation.
[…] Formalin was removed and 0.25% aqueous crystal violet (Sigma, HT901), dissolved in water, was added for 10 minutes at RT. Unbound Crystal Violet was rinsed by washing with water and finally 33% acetic acid was added to dissolve the dye.
(§4) The optical density of each plate was measured on a μQuant spectrophotometer and the data were analyzed with Gen5 software (μQuant Biomolecular Spectrophotometer MQX200 and Gen5™ Microplate Data Collection & Analysis software, BioTek® Instruments. Inc, April 2008). Absorbance was measured at 570 nm for all assays and a second wavelength was measured in order to subtract noise. For the Methyl-Tetrazolium assay this second wavelength was 630 nm and for the Sulforhodamine B and Crystal Violet assays it was 690 nm.

[2] = tested on: 22Rv1 (human prostate cancer); assay: Crystal Violet (CVE) viability assay, 22Rv1; format: cell-based; conditions: for Average absorbance, CVE 24 h / Average absorbance, CVE 48 h / Average absorbance, CVE 72 h: 22Rv1 Run 3
From the text: as §1, §2, §3
For the Crystal Violet assay, the medium was removed from the 96-well plates, the plates rinsed with PBS (Sigma, P3813) and then the cells were […] by the addition of 10% formalin (MERCK, 1.04003.2500) for 20 minutes at RT. Formalin was removed and 0.25% aqueous crystal violet (Sigma, HT901), dissolved in water, was added for 10 minutes at RT. Unbound Crystal Violet was rinsed by washing with water and finally 33% acetic acid was added to dissolve the dye.
as §4

N.N.[Cl][Pt][Cl] [cisplatin]
CVE 24 h Average ([1]; Run 1, 0.1 μg/ml CDDP): 0.161 | CVE 48 h Average ([1]; Run 1, 0.1 μg/ml CDDP): 0.939 | CVE 72 h Average ([1]; Run 1, 0.1 μg/ml CDDP): 0.768 | CVE 24 h Average ([1]; Run 1, 1 μg/ml CDDP): 0.124 | CVE 48 h Average ([1]; Run 1, 1 μg/ml CDDP): 0.549 | CVE 72 h Average ([1]; Run 1, 1 μg/ml CDDP): 0.375 | CVE 48 h Average ([1]; Run 1, 10 μg/ml CDDP): 0.586 | CVE 72 h Average ([1]; Run 1, 10 μg/ml CDDP): 0.416 | CVE 24 h Average ([1]; Run 1, 100 μg/ml CDDP): 0.098 | CVE 48 h Average ([1]; Run 1, 100 μg/ml CDDP): 0.504 | CVE 72 h Average ([1]; Run 1, 100 μg/ml CDDP): 0.538 | CVE 24 h Average ([1]; Run 2, 0.1 μg/ml CDDP): 0.118 | CVE 48 h Average ([1]; Run 2, 0.1 μg/ml CDDP): 0.305 | CVE 72 h Average ([1]; Run 2, 0.1 μg/ml CDDP): 0.485 | CVE 24 h Average ([1]; Run 2, 1 μg/ml CDDP): 0.042 | CVE 48 h Average ([1]; Run 2, 1 μg/ml CDDP): 0.047 | CVE 72 h Average ([1]; Run 2, 1 μg/ml CDDP): 0.036 | CVE 24 h Average ([1]; Run 2, 10 μg/ml CDDP): 0.125 | CVE 48 h Average ([1]; Run 2, 10 μg/ml CDDP): 0.27 | CVE 72 h Average ([1]; Run 2, 10 μg/ml CDDP): 0.301 | CVE 24 h Average ([1]; Run 2, 100 μg/ml CDDP): 0.074 | CVE 48 h Average ([1]; Run 2, 100 μg/ml CDDP): 0.062 | CVE 72 h Average ([1]; Run 2, 100 μg/ml CDDP): 0.11 | CVE 24 h ([1]; 0.1 μg/ml CDDP): 1.198 | CVE 48 h ([1]; 0.1 μg/ml CDDP): 1.239 | CVE 72 h ([1]; 0.1 μg/ml CDDP): 1.573 | CVE 24 h ([1]; 1 μg/ml CDDP): 0.528 | CVE 48 h ([1]; 1 μg/ml CDDP): 0.231 | CVE 72 h ([1]; 1 μg/ml CDDP): 0.144 | CVE 24 h ([1]; 10 μg/ml CDDP): 0.693 | CVE 48 h ([1]; 10 μg/ml CDDP): 0.79 | CVE 72 h ([1]; 10 μg/ml CDDP): 0.472 | CVE 24 h ([1]; 100 μg/ml CDDP): 0.168 | CVE 48 h ([1]; 100 μg/ml CDDP): 0.154 | CVE 72 h ([1]; 100 μg/ml CDDP): 0.089 | CVE 24 h Average ([2]; 22Rv1 Run 1, 0.1 μg/ml CDDP): 0.27 | CVE 48 h Average ([2]; 22Rv1 Run 1, 0.1 μg/ml CDDP): 0.501 | CVE 72 h Average ([2]; 22Rv1 Run 1, 0.1 μg/ml CDDP): 0.803 | CVE 24 h Average ([2]; 22Rv1 Run 1, 1 μg/ml CDDP): 0.152 | CVE 48 h Average ([2]; 22Rv1 Run 1, 1 μg/ml CDDP): 0.437 | CVE 72 h Average ([2]; 22Rv1 Run 1, 1 μg/ml CDDP): 0.606 | CVE 48 h Average ([2]; 22Rv1 Run 1, 10 μg/ml CDDP): 0.351 | CVE 72 h Average ([2]; 22Rv1 Run 1, 10 μg/ml CDDP): 0.439 | CVE 24 h Average ([2]; 22Rv1 Run 1, 100 μg/ml CDDP): 0.124 | CVE 48 h Average ([2]; 22Rv1 Run 1, 100 μg/ml CDDP): 0.273 | CVE 72 h Average ([2]; 22Rv1 Run 1, 100 μg/ml CDDP): 0.233 | CVE 24 h Average ([2]; 22Rv1 Run 2, 0.1 μg/ml CDDP): 0.541 | CVE 48 h Average ([2]; 22Rv1 Run 2, 0.1 μg/ml CDDP): 0.776 | CVE 72 h Average ([2]; 22Rv1 Run 2, 0.1 μg/ml CDDP): 0.784 | CVE 24 h Average ([2]; 22Rv1 Run 2, 1 μg/ml CDDP): 0.305 | CVE 48 h Average ([2]; 22Rv1 Run 2, 1 μg/ml CDDP): 0.517 | CVE 72 h Average ([2]; 22Rv1 Run 2, 1 μg/ml CDDP): 0.286 | CVE 24 h Average ([2]; 22Rv1 Run 2, 10 μg/ml CDDP): 0.376 | CVE 48 h Average ([2]; 22Rv1 Run 2, 10 μg/ml CDDP): 0.434 | CVE 72 h Average ([2]; 22Rv1 Run 2, 10 μg/ml CDDP): 0.206 | CVE 24 h Average ([2]; 22Rv1 Run 2, 100 μg/ml CDDP): 0.228 | CVE 48 h Average ([2]; 22Rv1 Run 2, 100 μg/ml CDDP): 0.228 | CVE 72 h Average ([2]; 22Rv1 Run 2, 100 μg/ml CDDP): 0.256 | Average absorbance, CVE 24 h ([2]; 0.1 μg/ml CDDP): 0.85 | Average absorbance, CVE 48 h ([2]; 0.1 μg/ml CDDP): 0.644 | Average absorbance, CVE 72 h ([2]; 0.1 μg/ml CDDP): 0.45 | Average absorbance, CVE 24 h ([2]; 1 μg/ml CDDP): 0.434 | Average absorbance, CVE 48 h ([2]; 1 μg/ml CDDP): 0.404 | Average absorbance, CVE 72 h ([2]; 1 μg/ml CDDP): 0.284 | Average absorbance, CVE 24 h ([2]; 10 μg/ml CDDP): 0.295 | Average absorbance, CVE 48 h ([2]; 10 μg/ml CDDP): 0.289 | Average absorbance, CVE 72 h ([2]; 10 μg/ml CDDP): 0.283 | Average absorbance, CVE 24 h ([2]; 100 μg/ml CDDP): 0.215 | Average absorbance, CVE 48 h ([2]; 100 μg/ml CDDP): 0.212 | Average absorbance, CVE 72 h ([2]; 100 μg/ml CDDP): 0.234
